Reference: publication PMC3723861, “Nitrile hydratase of Rhodococcus erythropolis: characterization of the enzyme and the use of whole cells for biotransformation of nitriles” (3 Biotech, 2012)

Test system: T1, nitrile hydratase
T1 construct: gene nthA; native intracellular enzyme purified from R. erythropolis MTCC 1526 grown with CoCl2; subunits about 29 kDa (alpha) and 30 kDa (beta); native 65 kDa
Assay: nicotinamide formation by HPLC, Lineweaver-Burk plot
Format: biochemical, Rhodococcus erythropolis
Conditions: pH 7.0, 20 mM phosphate buffer, 25 °C (Fig. 6 legend says 20 °C); 0.2-2.0 mM substrate

## N#Cc1cccnc1 [3-cyanopyridine]
  Km: 624 µM
